The values below come from PubChem BioAssay (NCI).

Test systems include SK-MEL-5 melanoma; SF-268 CNS; A549 NSCLC; MCF7 breast; NCI/ADR-RES ovarian; T-47D breast; SNB-75 CNS; LOX IMVI melanoma; NCI-H522 lung; UACC-62 melanoma; SK-OV-3 ovarian; MDA-MB-435; RXF 393 renal; TK-10 renal; SF-539 CNS.
What all share (test): NCI anticancer screen, dose series, 48 h

Structures are written as SMILES. Values joined by “and” are separate entries in the source; they are usually repeats but may differ in a detail not shown here. Equal entries are not always repeated.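 In this assay, cells in 96-well plates receive the compound at five concentrations for 48 hours. Endpoints are linearly interpolated between the surrounding concentrations. GI50 = concentration required for 50% inhibition of growth. TGI: concentration producing complete growth inhibition.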 Bounds are passed on as bounds.

For the compound `CCCCCCN(C(=O)Oc1ccccc1)C(C#N)c1ccccc1` (centres undefined), the TGI in the test on SK-MEL-5 melanoma, in the test with SF-268 CNS, with A549 NSCLC, in the test on MCF7 breast, in the test with NCI/ADR-RES ovarian and in the test on T-47D breast was over 100 µM each time. In addition, the TGI in the test with SNB-75 CNS, in the test on LOX IMVI melanoma, in the test on NCI-H522 lung, in the test with UACC-62 melanoma, with SK-OV-3 ovarian and with MDA-MB-435 was over 100 µM each time. The TGI in the test with RXF 393 renal, in the test on TK-10 renal and with SF-539 CNS was over 100 µM in each case.

For the compound `COc1ccc(/C=C/C(=O)NCC(NC(=O)/C=C/c2ccc(OC)c(OC)c2)C(=O)O)cc1OC` (centres undefined), the TGI is over 100 µM in the test on SK-MEL-5 melanoma; over 100 µM in the test on SF-268 CNS; over 100 µM with A549 NSCLC; over 100 µM in the test with MCF7 breast; 0.0691 µM in the test on NCI/ADR-RES ovarian; over 100 µM with T-47D breast. For the same compound, the TGI in the test on SNB-75 CNS, in the test on LOX IMVI melanoma, in the test with NCI-H522 lung, in the test on UACC-62 melanoma, with SK-OV-3 ovarian and in the test with MDA-MB-435 was over 100 µM in each case. Also, the TGI with RXF 393 renal, in the test on TK-10 renal and with SF-539 CNS was over 100 µM in each case.

`CN(CCO)CC(=O)CC(O)(C(F)(F)F)C(F)(F)F`: the TGI was 31.8 µM in the test on SK-MEL-5 melanoma; over 100 µM in the test on A549 NSCLC; over 100 µM with MCF7 breast; over 100 µM in the test with NCI/ADR-RES ovarian; over 100 µM in the test with T-47D breast; 51.7 µM with SNB-75 CNS. Besides, the TGI was 86.3 µM with LOX IMVI melanoma; over 100 µM in the test with NCI-H522 lung; over 100 µM in the test with UACC-62 melanoma; 74.3 µM in the test on SK-OV-3 ovarian; over 100 µM with MDA-MB-435; 46.8 µM in the test on RXF 393 renal. Also, the TGI in the test on TK-10 renal and with SF-539 CNS was over 100 µM each time.

`CSc1nc(=S)[nH]c2n[nH]c(C)c12`: the TGI with SK-MEL-5 melanoma, with SF-268 CNS, in the test on A549 NSCLC, with MCF7 breast, in the test with NCI/ADR-RES ovarian and in the test with T-47D breast was over 100 µM each time. The TGI with SNB-75 CNS, in the test on LOX IMVI melanoma, in the test on NCI-H522 lung, in the test on UACC-62 melanoma, in the test on SK-OV-3 ovarian and with MDA-MB-435 was over 100 µM each time. Besides, the TGI in the test on RXF 393 renal, with TK-10 renal and in the test with SF-539 CNS was over 100 µM each time.

As for `CC[C@@]1(O)C(=O)OCc2c1c(Cl)c1n(c2=O)Cc2cc3ccccc3nc2-1`, the TGI with SK-MEL-5 melanoma is 5.42 µM; with SF-268 CNS, 67.7 µM; with A549 NSCLC, over 63.2 µM; in the test with MCF7 breast, over 34.7 µM; in the test with NCI/ADR-RES ovarian, 15.1 µM; with T-47D breast, over 23 µM. Moreover, the TGI in the test on SNB-75 CNS is 12.7 µM; in the test on LOX IMVI melanoma it was 4.01 µM; in the test on NCI-H522 lung it was 20.8 µM; with UACC-62 melanoma, 3.38 µM; in the test on SK-OV-3 ovarian, 45.5 µM; in the test on MDA-MB-435, over 100 µM. In addition, the TGI was 15.1 µM with RXF 393 renal, over 79.5 µM in the test on TK-10 renal and 6.09 µM in the test with SF-539 CNS.

With `COC(=O)/C=C/c1cc(OC)c2c(c1)C(C(=O)OC)C(c1ccc(OC)c(OC)c1)O2` (centres undefined), the TGI in the test with SK-MEL-5 melanoma, in the test on SF-268 CNS, in the test with A549 NSCLC, in the test with MCF7 breast, in the test on NCI/ADR-RES ovarian and in the test on T-47D breast was over 100 µM throughout. Moreover, the TGI in the test with SNB-75 CNS is 5.61 µM; in the test on LOX IMVI melanoma, over 100 µM; in the test on NCI-H522 lung it was over 100 µM; with UACC-62 melanoma, over 100 µM; in the test with SK-OV-3 ovarian, over 100 µM; with MDA-MB-435 it was 49 µM. Further, the TGI in the test with RXF 393 renal and in the test on TK-10 renal was over 100 µM in each case. Further, the GI50 in the test with SF-268 CNS was 70.7 µM and 10.7 µM; in the test on NCI/ADR-RES ovarian it was 43.3 µM and 4.9 µM; in the test on T-47D breast, 39.9 µM and 4.16 µM; in the test with MDA-MB-435, 19.8 µM.

`COc1c(O)cc(/C=C/c2cc(O)cc3c2[C@@]2(C(=O)O3)c3c(O)cc(O)cc3OC2c2cccc(O)c2)cc1O` (some centres undefined): the TGI with SK-MEL-5 melanoma was 72.1 µM; in the test with SF-268 CNS, over 100 µM; in the test on A549 NSCLC, over 100 µM; in the test with MCF7 breast it was over 100 µM; in the test with NCI/ADR-RES ovarian, 77.8 µM; in the test on T-47D breast, over 100 µM. In addition, the TGI is over 100 µM with LOX IMVI melanoma; over 100 µM with NCI-H522 lung; 72 µM in the test with UACC-62 melanoma; 74.8 µM in the test on SK-OV-3 ovarian; over 100 µM with MDA-MB-435; over 100 µM in the test on RXF 393 renal. For the same compound, the TGI in the test with TK-10 renal and in the test with SF-539 CNS was over 100 µM in each case.

Regarding `CSc1nc(C)cc(Nc2ccc(O)c(CN3CCCCC3)c2)n1`, the TGI in the test on SK-MEL-5 melanoma, in the test with SF-268 CNS, in the test with A549 NSCLC, with MCF7 breast, in the test on NCI/ADR-RES ovarian and in the test on T-47D breast was over 100 µM in each case. The TGI in the test on SNB-75 CNS, in the test with LOX IMVI melanoma, in the test on NCI-H522 lung, in the test on UACC-62 melanoma, in the test with SK-OV-3 ovarian and in the test on MDA-MB-435 was over 100 µM throughout. In addition, the TGI in the test with RXF 393 renal and in the test with SF-539 CNS was over 100 µM in each case.

Turning to `CCCCCCCCCC(=O)OCC1(CO)C/C(=C/CC(C(C)C)C(C)C)C(=O)O1` (centres undefined), the TGI in the test on SK-MEL-5 melanoma, in the test on SF-268 CNS, in the test with A549 NSCLC, with MCF7 breast, in the test on NCI/ADR-RES ovarian and in the test on T-47D breast was over 100 µM throughout. Further, the TGI in the test with SNB-75 CNS was over 100 µM; with LOX IMVI melanoma it was over 100 µM; in the test on NCI-H522 lung it was 39.8 µM; with UACC-62 melanoma it was over 100 µM; in the test with SK-OV-3 ovarian, over 100 µM; in the test on MDA-MB-435, over 100 µM. Besides, the TGI in the test with RXF 393 renal and in the test on TK-10 renal was over 100 µM each time.
